Assay results from article PMC3973950, “Synthesis of 5-arylidine amino-1,3,4-thiadiazol-2-[(N-substituted benzyol)]sulphonamides endowed with potent antioxidants and anticancer activity induces growth inhibition in HEK293, BT474 and NCI-H226 cells” (Medicinal Chemistry Research, 2013).

Tests used:
[1] = Total antioxidant activity (ABTS radical cation scavenging); format: biochemical; conditions: Conc. ± SD; three independent experiments in duplicate; standard trolox; read-out: IC50 inhibitory concentration, ABTS^+ radical
Description: The ability of the test sample to scavenge 2,2′-azinobis-(3-ethylbenzothiazoline-6-sulphonic acid) (ABTS^·+) radical cation was compared with 6-hydroxy-2,5,7,8-tetramethylchroman-2-carboxylic acid (trolox) standard (Chang et al., [2007]; Erel, [2004]; Re et al., [1999]). The ABTS^·+ radical cation was pregenerated by mixing ABTS stock solution (7 mM) with potassium persulphate (2.45 mM) (final concentration) and incubating for 12–16 h in the dark at room temperature until the reaction was complete and the absorbance was stable. The absorbance of the ABTS^·+ solution was equilibrated to 0.70 (±0.02) by diluting with water at room temperature, then 1 mL of solution was mixed with 10 μL of the test sample (0.05–10 mg/mL), and the absorbance was measured at 734 nm after 6 min. All experiments were repeated three times. The percentage inhibition of absorbance was calculated and plotted as a function of the concentration of standard and sample to determine the trolox equivalent antioxidant concentration (TEAC). To calculate the TEAC, the gradient of the plot for the sample was divided by the gradient of the plot for trolox. The IC50 inhibitory concentration (nM/mL) values of tested compounds are depicted in Table 1. The ABTS^·+ radical scavenging activity of the samples was expressed as S%=[(Acontrol-Asample)/Acontrol]×100 where A control is the absorbance of the blank control (ABTS^·+ solution without test sample), and A sample is the absorbance of the test sample.

[2] = In vitro cytotoxicity by MTT assay, HEK 293; format: cell-based, human; conditions: human, HEK 293 cells, read-out: % cytotoxicity (100 − % cell survival) of HEK 293 cell line
How it was run: (§1)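 After 72 h of compound exposure at 37 °C in 5 % CO2, MTT was added for 4 h and the propanol-solubilised formazan was read at 490 nm. Monolayers (~10,000 cells/well, RPMI-1640 plus 10 % newborn calf serum) had been allowed to form for 24 h beforehand.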

[3] = DPPH radical scavenging activity; format: biochemical; conditions: Conc. ± SD; standard ascorbic acid; read-out: IC50 inhibitory concentration, DPPH radical
Description: Compounds of SC series were evaluated for their in vitro free radical scavenging activities by 2,2-diphenyl-1-picrylhydrazyl (DPPH) assay method (Blois, [1958]; Shishoo et al., [1999]; Chhajed et al., [2007]). To determine the free radical scavenging activity, a method based on the reduction of a methanolic solution of the coloured DPPH radical was used. To a set of test tubes containing methanol (3 mL), DPPH reagent (2 mg/mL) (50 μL) was added. The initial absorbance was measured. To these test tubes, methanolic solution of different test solutions (1 mg/mL) were added (10–50 μL). Ascorbic acid (0.5 mg/mL) was also added in the concentration of 10, 20, 30, 40, 50 and 100 μL. After 20 min, absorbance was recorded at 516 nm. The experiment was performed in triplicate. The percentage reduction in absorbance was calculated from the initial and final absorbance of each solution (Dhar and Taploo, [1982]).

[4] = tested on: NCI-H226 (lung cancer cell line); experiment: In vitro cytotoxicity by MTT assay, NCI-H226; format: cell-based; conditions: Homo sapiens, 72 h, read-out: % Cytotoxicity (100 − % cell survival) of NCI-H226 cell line; for cytotoxicity at 0.005 µM: NCI-H226, 0.005 μM; for cytotoxicity at 0.045 µM: NCI-H226, 0.045 μM; for cytotoxicity at 0.13 µM: NCI-H226, 0.13 μM; for cytotoxicity at 0.41 µM: NCI-H226, 0.41 μM; for cytotoxicity at 1.23 µM: NCI-H226, 1.23 μM; for cytotoxicity at 3.7 µM: NCI-H226, 3.7 μM; for cytotoxicity at 11.11 µM: NCI-H226, 11.11 μM; for cytotoxicity at 33.33 µM: NCI-H226, 33.33 μM; for cytotoxicity at 100 µM: NCI-H226, 100 μM
How it was run: as §1

[5] = Superoxide anion radical scavenging (NBT/NADH/PMS); format: biochemical; conditions: Conc. ± SD; standard catechin; read-out: IC50 inhibitory concentration, Superoxide anion
Description: Measurement of superoxide anion scavenging activity of the synthesized compound was taken based on the method described by Nishimiki et al. ([1972]) and slightly modified. […] The reaction mixture was incubated at 25 °C for 5 min, and the absorbance at 560 nm was measured against blank samples. Catechin was used as reference compound. All the experiments were performed in triplicate, and the results were averaged. The percentage of inhibition was determined by comparing the results of control and test samples. The IC50 (nM/mL) value are depicted in Table 1.

SMILES | melting point | IC50 [1] | cytotoxicity at 72 h, 0.005 µM [2] | cytotoxicity at 72 h, 0.015 µM [2] | cytotoxicity at 72 h, 0.045 µM [2] | cytotoxicity at 72 h, 0.13 µM [2] | cytotoxicity at 72 h, 0.41 µM [2] | cytotoxicity at 72 h, 1.23 µM [2] | cytotoxicity at 72 h, 3.7 µM [2] | cytotoxicity at 72 h, 11.11 µM [2] | cytotoxicity at 72 h, 33.33 µM [2] | cytotoxicity at 72 h, 100 µM [2] | IC50 [3] | cytotoxicity at 0.005 µM [4] | cytotoxicity at 0.045 µM [4] | cytotoxicity at 0.13 µM [4] | cytotoxicity at 0.41 µM [4] | cytotoxicity at 1.23 µM [4] | cytotoxicity at 3.7 µM [4] | cytotoxicity at 11.11 µM [4] | further results
COc1ccc(C=Nc2nnc(S(=O)(=O)NC(=O)c3ccccc3)s2)cc1 [Compound 9d, N-({5-[(4-Methoxybenzylidene)amino]-1,3,4-thiadiazol-2-yl}sulfonyl)benzamide] | 215 to 217 °C | 55.6 ± 6.98 µM | 30.6% | 32.6% | 33.9% | 34.8% | 34.8% | 35.5% | 35.8% | 36.3% | 38.2% | 38.9% | 63.6 ± 8.35 µM | 35.6% | 37.5% | 38.3% | 40.6% | 41.2% | 43.1% | 47.8% | cytotoxicity at 33.33 µM [4]: 48.2%; cytotoxicity at 100 µM [4]: 53%; IC50 [5]: 74.5 ± 8.3 µM
O=C(NS(=O)(=O)c1nnc(N=Cc2ccccc2)s1)c1ccccc1 [Compound 9a, N-{[5-(Benzylidenamino)-1,3,4-thiadiazol-2-yl]sulphonyl} benzamide] | 185 to 187 °C | 73.3 ± 7.05 µM | 37.4% | 38.2% | 39.8% | 40.7% | 42.4% | 43.1% | 44.2% | 45.6% | 46.2% | 50.6% | 134 ± 12.9 µM | 33.3% | 35.3% | 36.1% | 37% | 37.9% | 38.1% | 39.1% | cytotoxicity at 33.33 µM [4]: 41.1%; cytotoxicity at 100 µM [4]: 42.4%; IC50 [5]: 152 ± 14.4 µM
